Reference: patent US4639509A, “[16,19-Di-alanine] calcitonin” (Armour Pharmaceutical Company, priority 1985, dated 1987)
Bridge positions count the residues as written; N and C are the ends. Peptide text beside a SMILES is read from it.

What was measured:
[1] = literature values; cited from earlier work
[2] = test system: serum calcium concentration
Procedure: Rats were divided into four groups of seven animals, and each group was assigned at random to a dose of standard or test solution. Low and high doses were chosen from the linear portion of the dose-responsive curve. For the salmon calcitonin standard, the values were 0.7 and 2.1 mcg. peptide/100 g. body weight (BW). This dose approximates 3 and 9 MU/100 g. BW. Peptides were given by subcutaneous injection (0.2 ml/100 g. BW) and blood was withdrawn 1 hour later for serum calcium determination. Sera are processed and analyzed within two hours of collection. Results were analyzed within two hours of collection.

(1,7-α-L-amino-suberic acid)eel calcitonin
hypocalcemic potency [1]: about 3400 Iu/mg

CC(C)C[C@H](NC(=O)[C@H](CCCCN)NC(=O)CNC(=O)[C@H](CC(C)C)NC(=O)[C@@H](NC(=O)[C@@H]1CSSC[C@H](N)C(=O)N[C@@H](CO)C(=O)N[C@@H](CC(N)=O)C(=O)N[C@@H](CC(C)C)C(=O)N[C@@H](CO)C(=O)N[C@@H]([C@@H](C)O)C(=O)N1)C(C)C)C(=O)N[C@@H](CO)C(=O)N[C@@H](CCC(N)=O)C(=O)N[C@@H](CCC(=O)O)C(=O)N[C@@H](C)C(=O)N[C@@H](Cc1c[nH]cn1)C(=O)N[C@@H](CCCCN)C(=O)N[C@@H](C)C(=O)N[C@@H](CCC(N)=O)C(=O)N[C@H](C(=O)N[C@@H](Cc1ccc(O)cc1)C(=O)N1CCC[C@H]1C(=O)N[C@@H](CCCNC(=N)N)C(=O)N[C@H](C(=O)N[C@@H](CC(N)=O)C(=O)N[C@H](C(=O)NCC(=O)N[C@@H](CO)C(=O)NCC(=O)N[C@H](C(=O)N1CCC[C@H]1C(N)=O)[C@@H](C)O)[C@@H](C)O)[C@@H](C)O)[C@@H](C)O [[Di-Ala^16,19]SCT, [16,19-Di-Alanine]salmon calcitonin] (H-CSNLSTCVLGKLSQEAHKAQTYPRTNTGSGTP-NH2; disulfide 1-7)
biological potency ([2]; rat, in vivo, sc): 7200 IU/mg

CC(C)C[C@H](NC(=O)[C@H](CCCCN)NC(=O)CNC(=O)[C@H](CC(C)C)NC(=O)[C@@H](NC(=O)[C@@H]1CSSC[C@H](N)C(=O)N[C@@H](CO)C(=O)N[C@@H](CC(N)=O)C(=O)N[C@@H](CC(C)C)C(=O)N[C@@H](CO)C(=O)N[C@@H]([C@@H](C)O)C(=O)N1)C(C)C)C(=O)N[C@@H](CO)C(=O)N[C@@H](CCC(N)=O)C(=O)N[C@@H](CCC(=O)O)C(=O)N[C@@H](CC(C)C)C(=O)N[C@@H](Cc1c[nH]cn1)C(=O)N[C@@H](CCCCN)C(=O)N[C@@H](CC(C)C)C(=O)N[C@@H](CCC(N)=O)C(=O)N[C@H](C(=O)N[C@@H](Cc1ccc(O)cc1)C(=O)N1CCC[C@H]1C(=O)N[C@@H](CCCNC(=N)N)C(=O)N[C@H](C(=O)N[C@@H](CC(N)=O)C(=O)N[C@H](C(=O)NCC(=O)N[C@@H](CO)C(=O)NCC(=O)N[C@H](C(=O)N1CCC[C@H]1C(N)=O)[C@@H](C)O)[C@@H](C)O)[C@@H](C)O)[C@@H](C)O [standard salmon calcitonin, Salmon calcitonin]
potency content of the standard ([2]; standard used in the assay, independently determined): greater than 4,000 IU/mg
